Reference: PubChem BioAssay (NCI)
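GI50: concentration for 50% inhibition of growth. TGI: concentration producing complete growth inhibition.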

Experiments:
Experiment in all cases: inhibition of tumour cell growth, NCI panel, 384-well format
786-0 renal = tested on: 786-0 renal
A498 renal = tested on: A498 renal
A549 NSCLC = tested on: A549 NSCLC
ACHN renal = tested on: ACHN renal
BT-549 breast = tested on: BT-549 breast
CAKI-1 renal = tested on: CAKI-1 renal
CCRF-CEM leukemia = tested on: CCRF-CEM leukemia
COLO 205 colon = tested on: COLO 205 colon
DU-145 prostate = tested on: DU-145 prostate
EKVX NSCLC = tested on: EKVX NSCLC
HCC-2998 colon = tested on: HCC-2998 colon
HCT-116 colon = tested on: HCT-116 colon
HCT-15 colon = tested on: HCT-15 colon
HL-60(TB) leukemia = tested on: HL-60(TB) leukemia
HOP-62 NSCLC = tested on: HOP-62 NSCLC
HOP-92 NSCLC = tested on: HOP-92 NSCLC
HS 578T breast = tested on: HS 578T breast
HT29 colon = tested on: HT29 colon
IGROV1 ovarian = tested on: IGROV1 ovarian
K-562 leukemia = tested on: K-562 leukemia
KM12 colon = tested on: KM12 colon
LOX IMVI melanoma = tested on: LOX IMVI melanoma
M14 melanoma = tested on: M14 melanoma
MALME-3M melanoma = tested on: MALME-3M melanoma
MCF7 breast = tested on: MCF7 breast
MDA-MB-231 breast = tested on: MDA-MB-231 breast
MDA-MB-435 melanoma = tested on: MDA-MB-435 melanoma
MDA-MB-468 breast = tested on: MDA-MB-468 breast
MOLT-4 leukemia = tested on: MOLT-4 leukemia
NCI-H226 lung = tested on: NCI-H226 lung
NCI-H23 lung = tested on: NCI-H23 lung
NCI-H322M lung = tested on: NCI-H322M lung
NCI-H460 NSCLC = tested on: NCI-H460 NSCLC
NCI-H522 lung = tested on: NCI-H522 lung
NCI/ADR-RES ovarian = tested on: NCI/ADR-RES ovarian
OVCAR-3 ovarian = tested on: OVCAR-3 ovarian
OVCAR-4 ovarian = tested on: OVCAR-4 ovarian
OVCAR-5 ovarian = tested on: OVCAR-5 ovarian
OVCAR-8 ovarian = tested on: OVCAR-8 ovarian
PC-3 prostate = tested on: PC-3 prostate
RPMI-8226 leukemia = tested on: RPMI-8226 leukemia
RXF 393 renal = tested on: RXF 393 renal
SF-268 CNS = tested on: SF-268 CNS
SF-295 CNS = tested on: SF-295 CNS
SF-539 CNS = tested on: SF-539 CNS
SK-MEL-28 melanoma = tested on: SK-MEL-28 melanoma
SK-MEL-5 melanoma = tested on: SK-MEL-5 melanoma
SK-OV-3 ovarian = tested on: SK-OV-3 ovarian
SN12C renal = tested on: SN12C renal
SNB-19 CNS = tested on: SNB-19 CNS
SNB-75 CNS = tested on: SNB-75 CNS
SR leukemia = tested on: SR leukemia
SW-620 colon = tested on: SW-620 colon
T-47D breast = tested on: T-47D breast
TK-10 renal = tested on: TK-10 renal
U251 glioblastoma = tested on: U251 glioblastoma
UACC-257 melanoma = tested on: UACC-257 melanoma
UO-31 renal = tested on: UO-31 renal

Structure (SMILES): CN1CCN(c2ccc3nc(-c4c(N)c5c(F)cccc5[nH]c4=O)[nH]c3c2)CC1
- GI50 ([…]-0 renal): 1.07 µM
- TGI (786-0 renal): 2.3 µM
- GI50 (A498 renal): 0.472 µM
- TGI (A498 renal): 1.77 µM
- GI50 (A549 NSCLC): 0.72 µM
- TGI (A549 NSCLC): 1.99 µM
- GI50 (ACHN renal): 0.344 µM
- TGI (ACHN renal): 1.5 µM
- GI50 (BT-549 breast): 0.451 µM
- TGI (BT-549 breast): 1.7 µM
- GI50 (CAKI-1 renal): 0.265 µM
- TGI (CAKI-1 renal): 1.32 µM
- GI50 (CCRF-CEM leukemia): 0.369 µM
- TGI (CCRF-CEM leukemia): 1.08 µM
- GI50 (COLO 205 colon): 1.01 µM
- TGI (COLO 205 colon): 2.17 µM
- GI50 (DU-145 prostate): 0.779 µM
- TGI (DU-145 prostate): 2.1 µM
- GI50 (EKVX NSCLC): 1.04 µM
- TGI (EKVX NSCLC): 2.39 µM
- GI50 (HCC-2998 colon): 0.744 µM
- TGI (HCC-2998 colon): 2.02 µM
- GI50 (HCT-116 colon): 0.624 µM
- TGI (HCT-116 colon): 1.9 µM
- GI50 (HCT-15 colon): 0.417 µM
- TGI (HCT-15 colon): 1.63 µM
- GI50 (HL-60(TB) leukemia): 0.357 µM
- TGI (HL-60(TB) leukemia): 1.29 µM
- GI50 (HOP-62 NSCLC): 1.08 µM
- TGI (HOP-62 NSCLC): 2.32 µM
- GI50 (HOP-92 NSCLC): 0.645 µM
- TGI (HOP-92 NSCLC): 2 µM
- GI50 (HS 578T breast): 0.358 µM
- TGI (HS 578T breast): 1.5 µM
- GI50 (HT29 colon): 1.24 µM
- TGI (HT29 colon): 2.55 µM
- GI50 (IGROV1 ovarian): 0.276 µM
- TGI (IGROV1 ovarian): 1.35 µM
- GI50 (K-562 leukemia): 0.441 µM
- TGI (K-562 leukemia): 1.54 µM
- GI50 (KM12 colon): 0.0331 µM
- TGI (KM12 colon): 1.45 µM
- GI50 (LOX IMVI melanoma): 0.938 µM
- TGI (LOX IMVI melanoma): 2.13 µM
- GI50 (M14 melanoma): 0.34 µM
- TGI (M14 melanoma): 1.51 µM
- GI50 (MALME-3M melanoma): 0.495 µM
- TGI (MALME-3M melanoma): 1.67 µM
- GI50 (MCF7 breast): 1.04 µM
- TGI (MCF7 breast): 2.23 µM
- GI50 (MDA-MB-231 breast): 1.84 µM
- TGI (MDA-MB-231 breast): 4.05 µM
- GI50 (MDA-MB-435 melanoma): 1.28 µM
- TGI (MDA-MB-435 melanoma): 2.56 µM
- GI50 (MDA-MB-468 breast): 1.08 µM
- TGI (MDA-MB-468 breast): 2.32 µM
- GI50 (MOLT-4 leukemia): 0.171 µM
- TGI (MOLT-4 leukemia): 0.31 µM
- GI50 (NCI-H226 lung): 0.545 µM
- TGI (NCI-H226 lung): 1.98 µM
- GI50 (NCI-H23 lung): 1.15 µM
- TGI (NCI-H23 lung): 2.44 µM
- GI50 (NCI-H322M lung): 1.15 µM
- TGI (NCI-H322M lung): 2.9 µM
- GI50 (NCI-H460 NSCLC): 0.39 µM
- TGI (NCI-H460 NSCLC): 1.43 µM
- GI50 (NCI-H522 lung): 0.99 µM
- TGI (NCI-H522 lung): 2.16 µM
- GI50 (NCI/ADR-RES ovarian): 1.61 µM
- TGI (NCI/ADR-RES ovarian): 3.06 µM
- GI50 (OVCAR-3 ovarian): 1.06 µM
- TGI (OVCAR-3 ovarian): 2.26 µM
- GI50 (OVCAR-4 ovarian): 1.53 µM
- TGI (OVCAR-4 ovarian): 2.96 µM
- GI50 (OVCAR-5 ovarian): 1.4 µM
- TGI (OVCAR-5 ovarian): 3.58 µM
- GI50 (OVCAR-8 ovarian): 1.24 µM
- TGI (OVCAR-8 ovarian): 2.53 µM
- GI50 (PC-3 prostate): 1.08 µM
- TGI (PC-3 prostate): 3.83 µM
- GI50 (RPMI-8226 leukemia): 0.329 µM
- TGI (RPMI-8226 leukemia): 1.24 µM
- GI50 (RXF 393 renal): 0.34 µM
- TGI (RXF 393 renal): 1.37 µM
- GI50 (SF-268 CNS): 1.25 µM
- TGI (SF-268 CNS): 2.83 µM
- GI50 (SF-295 CNS): 1.33 µM
- TGI (SF-295 CNS): 2.61 µM
- GI50 (SF-539 CNS): 0.293 µM
- TGI (SF-539 CNS): 1.16 µM
- GI50 (SK-MEL-28 melanoma): 1.78 µM
- TGI (SK-MEL-28 melanoma): 3.17 µM
- GI50 (SK-MEL-5 melanoma): 1.08 µM
- TGI (SK-MEL-5 melanoma): 2.28 µM
- GI50 (SK-OV-3 ovarian): 0.325 µM
- TGI (SK-OV-3 ovarian): 1.47 µM
- GI50 (SN12C renal): 0.442 µM
- TGI (SN12C renal): 1.59 µM
- GI50 (SNB-19 CNS): 1.48 µM
- TGI (SNB-19 CNS): 3.12 µM
- GI50 (SNB-75 CNS): 0.493 µM
- TGI (SNB-75 CNS): 1.8 µM
- GI50 (SR leukemia): 0.17 µM
- TGI (SR leukemia): 0.337 µM
- GI50 (SW-620 colon): 0.476 µM
- TGI (SW-620 colon): 1.64 µM
- GI50 (T-47D breast): 1.7 µM
- TGI (T-47D breast): 3.1 µM
- GI50 (TK-10 renal): 1.25 µM
- TGI (TK-10 renal): 3.22 µM
- GI50 (U251 glioblastoma): 0.714 µM
- TGI (U251 glioblastoma): 2.01 µM
- GI50 (UACC-257 melanoma): 1.15 µM
- TGI (UACC-257 melanoma): 2.38 µM
- GI50 (UO-31 renal): 0.397 µM
- TGI (UO-31 renal): 1.6 µM
